What was measured:
Format in all cases: in vivo
[1] = test system: Ipomea hederaceae (IPOHE); experiment: Post-emergence biological efficacy, glasshouse pot test; settings: Ipomoea hederacea, 312 h; post-emergence, 1,000 g/ha, evaluated after 13 days (100=total damage; 0=no damage); read-out: Percentage damage caused to weed species, IPOHE
Method in brief: (§1)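 Plants were sown in standard soil and grown 8 days in a glasshouse (24/16° C. day/night, 14 hours light, 65% humidity), then sprayed post-emergence at 1000 or 250 g/ha from acetone/water (50:50) with 0.5% Tween 20. Damage was scored visually after 13 days (0 = none, 100 = total).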

Solanum nigrum (SOLNI) [2] = experiment: as above; settings: 312 h, post-emergence, 1,000 g/ha, evaluated after 13 days (100=total damage; 0=no damage), read-out: Percentage damage caused to weed species, SOLNI
Method in brief: as §1

[3] = test system: Amaranthus retoflexus (AMARE); experiment: as above; settings: Amaranthus retroflexus, 312 h; post-emergence, 1,000 g/ha, evaluated after 13 days (100=total damage; 0=no damage); read-out: Percentage damage caused to weed species, AMARE
Method in brief: as §1

[4] = test system: Echinochloa crus-galli (ECHCG); experiment: as above; settings: 312 h, post-emergence, 1,000 g/ha, evaluated after 13 days (100=total damage; 0=no damage), read-out: Percentage damage caused to weed species, ECHCG
Method in brief: as §1

Setaria faberi (SETFA) [5] = experiment: as above; settings: 312 h, post-emergence, 1,000 g/ha, evaluated after 13 days (100=total damage; 0=no damage), read-out: Percentage damage caused to weed species, SETFA
Method in brief: as §1

[6] = test system: Alopecurus myosuroides (ALOMY); experiment: as above; settings: 312 h, post-emergence, 1,000 g/ha, evaluated after 13 days (100=total damage; 0=no damage), read-out: Percentage damage caused to weed species, ALOMY
Method in brief: as §1

[7] = test system: Ipomea hederaceae (IPOHE); experiment: Pre-emergence biological efficacy, glasshouse pot test; settings: Ipomoea hederacea, 312 h; pre-emergence, 1,000 g/ha, evaluated after 13 days (100=total damage; 0=no damage); read-out: Percentage damage IPOHE
Method in brief: (§2)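 One day after seeds were sown in pots, compound was sprayed at 1000 or 250 g/ha. Plants were kept at 24/16 °C with 14 h light and 65% humidity and watered twice daily; damage was graded at day 13 (0 none, 100 total).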

Solanum nigrum (SOLNI) [8] = experiment: as above; settings: 312 h, pre-emergence, 1,000 g/ha, evaluated after 13 days (100=total damage; 0=no damage), read-out: Percentage damage SOLNI
Method in brief: as §2

[9] = test system: Amaranthus retoflexus (AMARE); experiment: as above; settings: Amaranthus retroflexus, 312 h; pre-emergence, 1,000 g/ha, evaluated after 13 days (100=total damage; 0=no damage); read-out: Percentage damage AMARE
Method in brief: as §2

[10] = test system: Echinochloa crus-galli (ECHCG); experiment: as above; settings: 312 h, pre-emergence, 1,000 g/ha, evaluated after 13 days (100=total damage; 0=no damage), read-out: Percentage damage ECHCG
Method in brief: as §2

Setaria faberi (SETFA) [11] = experiment: as above; settings: 312 h, pre-emergence, 1,000 g/ha, evaluated after 13 days (100=total damage; 0=no damage), read-out: Percentage damage SETFA
Method in brief: as §2

[12] = test system: Alopecurus myosuroides (ALOMY); experiment: as above; settings: 312 h, pre-emergence, 1,000 g/ha, evaluated after 13 days (100=total damage; 0=no damage), read-out: Percentage damage ALOMY
Method in brief: as §2

## O=C(O)c1nc(C2CC2)nc(NC2CC2)c1Cl [Compound 1-1, 5-Chloro-2-cyclopropyl-4-cyclopropylamino-pyrimidine-6-carboxylic acid]
[1]
  pest or weed control at 1000 g/ha: 80%
Solanum nigrum (SOLNI) [2]
  pest or weed control at 1000 g/ha: 90%
[3]
  pest or weed control at 1000 g/ha: 100%
[4]
  pest or weed control at 1000 g/ha: 40%
Setaria faberi (SETFA) [5]
  pest or weed control at 1000 g/ha: 80%
[6]
  pest or weed control at 1000 g/ha: 40%
[7]
  pest or weed control at 1000 g/ha: 90%
Solanum nigrum (SOLNI) [8]
  pest or weed control at 1000 g/ha: 90%
[9]
  pest or weed control at 1000 g/ha: 100%
[10]
  pest or weed control at 1000 g/ha: 20%
Setaria faberi (SETFA) [11]
  pest or weed control at 1000 g/ha: 0%
[12]
  pest or weed control at 1000 g/ha: 20%

## COC(=O)c1nc(C2CC2)nc(NCc2cccs2)c1Cl [Compound 4-140, 5-Chloro-2-cyclopropyl-6-methoxycarbonyl-4-(thiophen-2-ylmethylamino)-pyrimidine]
[1]
  pest or weed control at 1000 g/ha: 90%
Solanum nigrum (SOLNI) [2]
  pest or weed control at 1000 g/ha: 90%
[3]
  pest or weed control at 1000 g/ha: 90%
[4]
  pest or weed control at 1000 g/ha: 60%
Setaria faberi (SETFA) [5]
  pest or weed control at 1000 g/ha: 70%
[6]
  pest or weed control at 1000 g/ha: 30%
[7]
  pest or weed control at 1000 g/ha: 80%
Solanum nigrum (SOLNI) [8]
  pest or weed control at 1000 g/ha: 100%
[9]
  pest or weed control at 1000 g/ha: 100%
[10]
  pest or weed control at 1000 g/ha: 40%
Setaria faberi (SETFA) [11]
  pest or weed control at 1000 g/ha: 50%
[12]
  pest or weed control at 1000 g/ha: 20%

## COC(=O)c1nc(C2CC2)nc(NCC2CCCCCCC2)c1Cl [Compound 4-52, 5-Chloro-4-cyclooctylmethyl-amino-2-cyclo-propyl-6-methoxy-carbonylpyrimidine]
[1]
  pest or weed control at 1000 g/ha: 50%
Solanum nigrum (SOLNI) [2]
  pest or weed control at 1000 g/ha: 60%
[3]
  pest or weed control at 1000 g/ha: 30%
[4]
  pest or weed control at 1000 g/ha: 20%
Setaria faberi (SETFA) [5]
  pest or weed control at 1000 g/ha: 20%
[6]
  pest or weed control at 1000 g/ha: 0%
[7]
  pest or weed control at 1000 g/ha: 0%
Solanum nigrum (SOLNI) [8]
  pest or weed control at 1000 g/ha: 30%
[9]
  pest or weed control at 1000 g/ha: 40%
[10]
  pest or weed control at 1000 g/ha: 0%
Setaria faberi (SETFA) [11]
  pest or weed control at 1000 g/ha: 0%
[12]
  pest or weed control at 1000 g/ha: 0%

From patent publication US20110086759A1, “CHEMICAL COMPOUNDS” (SYNGENTA CROP PROTECTION, INC., priority 2007, published 2011)
